ChEMBL document CHEMBL1145488, “Transient loss of high-level mupirocin resistance in Staphylococcus aureus due to MupA polymorphism” (2007)
In brackets after ≈: the same amount, converted by molar mass.

How the values were obtained:
Assay type in all cases: functional
[1] = test system: Staphylococcus aureus; test: Antibacterial activity against Staphylococcus aureus MB1348 with mupA gene mutation by broth microdilution
[2] = test system: Staphylococcus aureus; test: Antibacterial activity against Staphylococcus aureus with ileS gene mutation
[3] = test system: Staphylococcus aureus; test: Antibacterial activity against Staphylococcus aureus J2870 with mupA gene mutation
[4] = test system: Staphylococcus aureus; test: Antibacterial activity against Staphylococcus aureus MB1348 with mupA gene mutation by Etest

C/C(=C\C(=O)OCCCCCCCCC(=O)O)C[C@@H]1OC[C@H](C[C@@H]2O[C@H]2[C@@H](C)[C@H](C)O)[C@@H](O)[C@H]1O [MUPIROCIN]
MIC [1]: 0.25 µg/mL (≈ 0.499 µM) | MIC [2]: 8 µg/mL (≈ 16 µM) | MIC [3]: ≥ 512 µg/mL | MIC [4]: > 256 µg/mL
